Data set [1] addresses T1, Amine oxidase [flavin-containing] B (Homo sapiens, UniProt P27338).
T1 sequence (P27338 whole entry): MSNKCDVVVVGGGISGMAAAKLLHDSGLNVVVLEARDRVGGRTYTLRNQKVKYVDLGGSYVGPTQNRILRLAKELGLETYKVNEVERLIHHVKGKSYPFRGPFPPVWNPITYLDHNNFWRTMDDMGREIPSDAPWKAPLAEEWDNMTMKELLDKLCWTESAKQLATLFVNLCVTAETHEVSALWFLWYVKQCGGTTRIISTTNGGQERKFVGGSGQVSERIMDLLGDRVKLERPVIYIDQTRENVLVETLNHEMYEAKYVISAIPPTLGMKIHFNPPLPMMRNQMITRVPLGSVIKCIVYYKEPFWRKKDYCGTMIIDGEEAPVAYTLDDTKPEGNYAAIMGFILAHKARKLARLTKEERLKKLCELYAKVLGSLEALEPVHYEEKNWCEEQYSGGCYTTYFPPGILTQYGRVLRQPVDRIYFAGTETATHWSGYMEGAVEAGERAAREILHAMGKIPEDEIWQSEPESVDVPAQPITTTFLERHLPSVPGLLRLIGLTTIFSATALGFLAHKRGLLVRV
Briefly: biochemical.
Description: Inhibition of human recombinant MAO-B expressed in baculovirus infected BTI-TN-5B1-4 insect cells assessed as inhibition of hydrogen peroxide production from p-tryptamine after 15 mins by fluorimetric method

Data set [2] has as its target T2, Amine oxidase [flavin-containing] A (Homo sapiens, UniProt P21397).
T2 sequence (P21397 whole entry): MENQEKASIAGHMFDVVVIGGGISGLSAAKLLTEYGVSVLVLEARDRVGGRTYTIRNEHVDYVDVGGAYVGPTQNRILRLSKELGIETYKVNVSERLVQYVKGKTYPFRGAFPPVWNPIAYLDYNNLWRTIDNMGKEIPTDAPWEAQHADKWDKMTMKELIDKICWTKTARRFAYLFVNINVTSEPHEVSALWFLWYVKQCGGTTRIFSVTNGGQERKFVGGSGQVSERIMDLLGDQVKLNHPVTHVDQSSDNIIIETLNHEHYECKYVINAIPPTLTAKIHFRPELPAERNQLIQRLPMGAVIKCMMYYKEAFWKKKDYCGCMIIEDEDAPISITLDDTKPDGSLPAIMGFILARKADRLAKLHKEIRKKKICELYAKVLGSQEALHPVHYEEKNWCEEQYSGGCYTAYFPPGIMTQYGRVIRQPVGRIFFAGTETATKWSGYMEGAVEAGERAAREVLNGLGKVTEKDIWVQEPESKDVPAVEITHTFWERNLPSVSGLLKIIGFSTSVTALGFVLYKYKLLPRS
Kind of data set: Inhibition of human recombinant MAO-A expressed in baculovirus infected BTI-TN-5B1-4 insect cells assessed as inhibition of hydrogen peroxide production from […] after 15 mins by fluorimetric method. The settings on record: bti-tn-5b1-4, 0.25 h.

Data set [3] addresses T2, Amine oxidase [flavin-containing] A. Kind of data set: Inhibition of human recombinant MAO-A expressed in baculovirus infected BTI-TN-5B1-4 insect cells assessed as inhibition of hydrogen peroxide production from […] at 100 uM after 15 mins by fluorimetric method. The settings on record: for inhibition at 100 µM: BTI-TN-5B1-4, human, 0.25 h; for inhibition (INH): human, bti-tn-5b1-4, 0.25 h, 100 µM.

In data set [4] the target is T1, Amine oxidase [flavin-containing] B. Briefly: Inhibition of human recombinant MAO-B expressed in baculovirus infected BTI-TN-5B1-4 insect cells assessed as inhibition of hydrogen peroxide production from […] at 100 uM after 15 mins by fluorimetric method. The settings on record: BTI-TN-5B1-4, human, 0.25 h.
Data set [5] shares this target. Briefly: Inhibition of human recombinant MAO-B expressed in baculovirus infected BTI-TN-5B1-4 insect cells assessed as inhibition of hydrogen peroxide production from […] at 1 mM after 15 mins by fluorimetric method. The settings on record: bti-tn-5b1-4, 0.25 h, 1000 µM.

Results on 14 compounds are retold here after ChEMBL document CHEMBL1932930, “Synthesis and biological assessment of novel 2-thiazolylhydrazones and computational analysis of their recognition by monoamine oxidase B” (Eur J Med Chem, 2012).

Molecules are shown by their SMILES.

The IC50 is the point on the concentration scale where inhibition reaches its midpoint. Usually inhibition stands for the percentage by which the read-out fell short of the control.

In data set [1], `COc1ccc(/C=N/Nc2nc(-c3ccc(F)cc3)cs2)cc1` gave a concentration for half-maximal inhibition (IC50) of 9240 nM. In addition, the “inhibition (INH)” value in data set [2] is reported as “Dose-dependent effect”. Besides, the inhibition at 100 µM in data set [3] was 40%.
As to `Cc1ccccc1/C=N/Nc1nc(-c2ccc(Cl)cc2)cs1`, the inhibition at 100 µM in data set [4] and in data set [3] was 40% in each case. Further, the “inhibition (INH)” value in data set [2] is on record as “Dose-dependent effect”.
`Cc1ccccc1/C=N/Nc1nc(-c2ccc(F)cc2)cs1` returned a half-maximal inhibitory concentration (IC50) in data set [1] of 190 nM. In addition, in data set [2], the “inhibition (INH)” value is on record as “Dose-dependent effect”. In addition, the inhibition at 100 µM in data set [3] is 40%.
For the compound `C#CCN(C)CCCOc1ccc(Cl)cc1Cl` [CLORGILINE], the “inhibition (INH)” value in data set [2] is given as “Dose-dependent effect”.
Turning to `Clc1ccc(-c2csc(N/N=C/c3ccccc3)n2)cc1`, the inhibition at 100 µM in data set [4] and in data set [3] was 40% each time. For the same compound, the “inhibition (INH)” value in data set [2] is recorded as “Dose-dependent effect”.
Regarding `O=C(NCCN1CCOCC1)c1ccc(Cl)cc1` [MOCLOBEMIDE], the “inhibition (INH)” value is reported as “Dose-dependent effect” in data set [2] and “Not Active” in data set [5].
Consider `Fc1ccc(-c2csc(N/N=C/c3ccccc3)n2)cc1`, for which it took 790 nM to reach half-maximal inhibition in data set [1] (IC50). Moreover, in data set [2], the “inhibition (INH)” value was “Dose-dependent effect”. In data set [3], the inhibition at 100 µM is 40%.
In the case of `COc1ccc(/C=N/Nc2nc(-c3ccc(F)cc3)cs2)cc1OC`, the IC50 in data set [1] is 2390 nM. The “inhibition (INH)” value in data set [2] is “Dose-dependent effect”. Also, the inhibition at 100 µM in data set [3] was found to be 40%.
On to `Clc1ccc(/C=N/Nc2nc(-c3ccc(Cl)cc3)cs2)cc1`, for which the inhibition at 100 µM in data set [4] and in data set [3] was 40% in each case. In data set [2], the “inhibition (INH)” value is recorded as “Dose-dependent effect”.
Consider `COc1ccc(/C=N/Nc2nc(-c3ccc(Cl)cc3)cs2)cc1`, for which the inhibition at 100 µM in data set [4] and in data set [3] was 40% each time. Further, the “inhibition (INH)” value in data set [2] is listed as “Dose-dependent effect”.
In the case of `Cc1ccc(/C=N/Nc2nc(-c3ccc(F)cc3)cs2)cc1`, inhibition in data set [1] was half-maximal at 44700 nM (IC50). In addition, the “inhibition (INH)” value in data set [2] was “Dose-dependent effect”; in data set [3], “Not Active”.
`Cc1ccc(/C=N/Nc2nc(-c3ccc(Cl)cc3)cs2)cc1`: the inhibition at 100 µM in data set [4] was 40%. For the same compound, the results for the “inhibition (INH)” value in data set [2] and in data set [3] were “Dose-dependent effect” and “Not Active”, respectively.
`Fc1ccc(-c2csc(N/N=C/c3ccc(Cl)cc3)n2)cc1` gave an IC50 in data set [1] of 1320 nM. Moreover, the “inhibition (INH)” value in data set [2] is recorded as “Dose-dependent effect”. Also, the inhibition at 100 µM in data set [3] stood at 40%.
In the case of `COc1ccc(/C=N/Nc2nc(-c3ccc(Cl)cc3)cs2)cc1OC`, the inhibition at 100 µM in data set [4] and in data set [3] was 40% throughout. Also, in data set [2], the “inhibition (INH)” value is “Dose-dependent effect”.
